Laboratory results from ChEMBL document CHEMBL1201862, “PubChem BioAssay data set” (2004).
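Five concentrations, 48 hours, 96-well plates. Abbreviation: GI50, concentration required for 50% inhibition of growth.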 Activity calls are given as the source filed them. No stated cut-off is given here; in the data, active = GI50 up to about 1.1 µM and inactive = higher.

How the values were obtained:
Assay in all cases: NCI anticancer screen, dose series, 48 h
786-0 = system: 786-0
A498 = system: A498
ACHN = system: ACHN
CCRF-CEM = system: CCRF-CEM
HCC 2998 = system: HCC 2998
HL-60 = system: HL-60
HOP-62 = system: HOP-62
HOP-92 = system: HOP-92
IGROV-1 = system: IGROV-1
NCI-H226 = system: NCI-H226
NCI-H460 = system: NCI-H460
NCI/ADR-RES = system: NCI/ADR-RES
OVCAR-3 = system: OVCAR-3
RXF 393 = system: RXF 393
SF-268 = system: SF-268
SF-539 = system: SF-539
SK-MEL-28 = system: SK-MEL-28
SK-MEL-5 = system: SK-MEL-5
SNB-75 = system: SNB-75
TK-10 = system: TK-10

Q: What does the source list for `O=C1c2ccccc2-c2nnc(-c3ccc(Cl)cc3)cc21`?
A: GI50 (786-0): > 10 µM (inactive); GI50 (A498): > 10 µM (inactive); GI50 (ACHN): > 10 µM (inactive); GI50 (CCRF-CEM): > 10 µM (inactive); GI50 (HCC 2998): > 10 µM (inactive); GI50 (HL-60): > 10 µM (inactive); GI50 (HOP-62): > 10 µM (inactive); GI50 (HOP-92): > 10 µM (inactive); GI50 (IGROV-1): > 10 µM (inactive); GI50 (NCI-H226): > 10 µM (inactive); GI50 (NCI-H460): > 10 µM (inactive); GI50 (NCI/ADR-RES): > 10 µM (inactive); GI50 (OVCAR-3): > 10 µM (inactive); GI50 (RXF 393): > 10 µM (inactive); GI50 (SF-268): > 10 µM (inactive); GI50 (SF-539): > 10 µM (inactive); GI50 (SK-MEL-28): > 10 µM (inactive); GI50 (SK-MEL-5): > 10 µM (inactive); GI50 (SNB-75): > 10 µM (inactive)

Q: Which results are given for `CCSC(=O)N1c2ccc(OC)cc2C=CC1C#N` (configuration not stated)?
A: GI50 (786-0): 0.00344 µM (active); GI50 (A498): < 0.01 µM (active); GI50 (ACHN): 0.0041 µM (active); GI50 (CCRF-CEM): 0.00313 µM (active); GI50 (HCC 2998): 0.00895 µM (active); GI50 (HL-60): 0.00347 µM (active); GI50 (HOP-62): 0.00841 µM (active); GI50 (HOP-92): 0.1 µM (active); GI50 (IGROV-1): 0.00373 µM (active); GI50 (NCI-H226): 0.00759 µM (active); GI50 (NCI-H460): 0.00423 µM (active); GI50 (NCI/ADR-RES): 0.00131 µM (active); GI50 (OVCAR-3): 0.001 µM (active); GI50 (RXF 393): 0.1 µM (active); GI50 (SF-268): 0.00113 µM (active); GI50 (SF-539): 0.00177 µM (active); GI50 (SK-MEL-28): 0.308 µM (active); GI50 (SK-MEL-5): 0.00152 µM (active); GI50 (SNB-75): 0.00417 µM (active); GI50 (TK-10): 0.00971 µM (active)

Q: For `CN(C)c1ccc(C=c2c3ccccc3n3c2c2ccccc2[n+]3C)cc1`, which GI50 (786-0) is on record?
A: 0.301 µM (active)

Q: What about the GI50 (A498) of the same compound?
A: 1.69 µM (inactive)

Q: What about the GI50 (ACHN) of the same compound?
A: 0.867 µM (active)

Q: What about the GI50 (CCRF-CEM) of the same compound?
A: 0.15 µM (active)

Q: And the GI50 (HCC 2998)?
A: 0.671 µM (active)

Q: What about the GI50 (HL-60) of the same compound?
A: 0.051 µM (active)

Q: What about the GI50 (HOP-62) of the same compound?
A: 0.942 µM (active)

Q: And the GI50 (HOP-92)?
A: 0.421 µM (active)

Q: And the GI50 (IGROV-1)?
A: 0.82 µM (active)

Q: What about the GI50 (NCI-H226) of the same compound?
A: 3.08 µM (inactive)

Q: And the GI50 (NCI-H460)?
A: 2.84 µM (inactive)

Q: What about the GI50 (NCI/ADR-RES) of the same compound?
A: 3.93 µM (inactive)

Q: And the GI50 (OVCAR-3)?
A: 0.239 µM (active)

Q: What about the GI50 (RXF 393) of the same compound?
A: 1.52 µM (inactive)

Q: What about the GI50 (SF-268) of the same compound?
A: 0.425 µM (active)

Q: What about the GI50 (SF-539) of the same compound?
A: 0.513 µM (active)

Q: What about the GI50 (SK-MEL-28) of the same compound?
A: 0.521 µM (active)

Q: What about the GI50 (SK-MEL-5) of the same compound?
A: 0.112 µM (active)

Q: And the GI50 (SNB-75)?
A: 2.17 µM (inactive)

Q: And the GI50 (TK-10)?
A: 1.2 µM (inactive)

Q: `O=C1/C(=C\c2ccccc2)c2ccccc2N1Cc1ccccc1` was tested. Which GI50 (786-0) did it give?
A: 7.01 µM (inactive)

Q: And the GI50 (A498)?
A: > 10 µM (inactive)

Q: What about the GI50 (ACHN) of the same compound?
A: 12.5 µM (inactive)

Q: What about the GI50 (CCRF-CEM) of the same compound?
A: 3.15 µM (inactive)

Q: And the GI50 (HCC 2998)?
A: 11.8 µM (inactive)

Q: And the GI50 (HL-60)?
A: 4.08 µM (inactive)

Q: And the GI50 (HOP-62)?
A: 13.1 µM (inactive)

Q: What about the GI50 (HOP-92) of the same compound?
A: 3.85 µM (inactive)

Q: And the GI50 (IGROV-1)?
A: 10.7 µM (inactive)

Q: What about the GI50 (NCI-H226) of the same compound?
A: 10.8 µM (inactive)

Q: And the GI50 (NCI-H460)?
A: 12.8 µM (inactive)

Q: And the GI50 (NCI/ADR-RES)?
A: 10.6 µM (inactive)

Q: What about the GI50 (OVCAR-3) of the same compound?
A: 3.99 µM (inactive)

Q: And the GI50 (RXF 393)?
A: 10.4 µM (inactive)

Q: What about the GI50 (SF-268) of the same compound?
A: 9.25 µM (inactive)

Q: And the GI50 (SF-539)?
A: > 10 µM (inactive)

Q: And the GI50 (SK-MEL-28)?
A: 11.1 µM (inactive)

Q: And the GI50 (SK-MEL-5)?
A: 11 µM (inactive)

Q: And the GI50 (SNB-75)?
A: 9.66 µM (inactive)

Q: What about the GI50 (TK-10) of the same compound?
A: 12.9 µM (inactive)

Q: What does the source list for `Brc1ccc2c([C@H]3CN[C@@H](c4c[nH]c5cc(Br)ccc45)CN3)c[nH]c2c1`?
A: GI50 (786-0): 1.65 µM (inactive); GI50 (A498): 1.87 µM (inactive); GI50 (ACHN): 2.94 µM (inactive); GI50 (CCRF-CEM): 2.84 µM (inactive); GI50 (HCC 2998): 1.62 µM (inactive); GI50 (HL-60): 1.95 µM (inactive); GI50 (HOP-62): 11.6 µM (inactive); GI50 (HOP-92): 3.24 µM (inactive); GI50 (IGROV-1): 3.19 µM (inactive); GI50 (NCI-H226): 7.26 µM (inactive); GI50 (NCI-H460): 1.9 µM (inactive); GI50 (NCI/ADR-RES): 4.9 µM (inactive); GI50 (OVCAR-3): 1.94 µM (inactive); GI50 (RXF 393): 2.4 µM (inactive); GI50 (SF-268): 6.79 µM (inactive); GI50 (SF-539): 2.89 µM (inactive); GI50 (SK-MEL-28): 14.2 µM (inactive); GI50 (SK-MEL-5): 4.91 µM (inactive); GI50 (SNB-75): 5.27 µM (inactive); GI50 (TK-10): 7.33 µM (inactive)

Q: Which GI50 (786-0) does the source give for `O=C1CC(CC(O)[C@@H]2CCCC[C@@H]2O)CC(=O)N1c1ccccc1` (some centres not stated) here?
A: > 100 µM (inactive)

Q: What about the GI50 (A498) of the same compound?
A: > 100 µM (inactive)

Q: And the GI50 (ACHN)?
A: > 100 µM (inactive)

Q: What about the GI50 (CCRF-CEM) of the same compound?
A: > 100 µM (inactive)

Q: What about the GI50 (HCC 2998) of the same compound?
A: > 100 µM (inactive)

Q: And the GI50 (HL-60)?
A: > 100 µM (inactive)

Q: What about the GI50 (HOP-62) of the same compound?
A: > 100 µM (inactive)

Q: What about the GI50 (HOP-92) of the same compound?
A: 83.8 µM (inactive)

Q: What about the GI50 (IGROV-1) of the same compound?
A: > 100 µM (inactive)

Q: What about the GI50 (NCI-H226) of the same compound?
A: > 100 µM (inactive)

Q: And the GI50 (NCI-H460)?
A: > 100 µM (inactive)

Q: And the GI50 (NCI/ADR-RES)?
A: > 100 µM (inactive)

Q: What about the GI50 (OVCAR-3) of the same compound?
A: > 100 µM (inactive)

Q: What about the GI50 (RXF 393) of the same compound?
A: > 100 µM (inactive)

Q: What about the GI50 (SF-268) of the same compound?
A: > 100 µM (inactive)

Q: What about the GI50 (SF-539) of the same compound?
A: > 100 µM (inactive)

Q: What about the GI50 (SK-MEL-28) of the same compound?
A: > 100 µM (inactive)

Q: What about the GI50 (SK-MEL-5) of the same compound?
A: > 100 µM (inactive)

Q: What about the GI50 (SNB-75) of the same compound?
A: > 100 µM (inactive)

Q: And the GI50 (TK-10)?
A: > 100 µM (inactive)

Q: With `NNC(=O)c1c(SCc2ccccc2)nc2c3ccccc3ccn12` as the compound, how does the GI50 (A498) read?
A: 11.6 µM (inactive)

Q: And the GI50 (ACHN)?
A: 27.2 µM (inactive)

Q: What about the GI50 (CCRF-CEM) of the same compound?
A: 2.92 µM (inactive)

Q: What about the GI50 (HCC 2998) of the same compound?
A: 46.8 µM (inactive)

Q: What about the GI50 (HL-60) of the same compound?
A: 9.08 µM (inactive)

Q: What about the GI50 (HOP-62) of the same compound?
A: 10.2 µM (inactive)

Q: What about the GI50 (HOP-92) of the same compound?
A: 17 µM (inactive)

Q: And the GI50 (IGROV-1)?
A: 14.4 µM (inactive)

Q: What about the GI50 (NCI-H226) of the same compound?
A: 22.1 µM (inactive)

Q: And the GI50 (NCI-H460)?
A: 14.8 µM (inactive)

Q: And the GI50 (NCI/ADR-RES)?
A: 26.5 µM (inactive)

Q: And the GI50 (OVCAR-3)?
A: 2.92 µM (inactive)

Q: And the GI50 (RXF 393)?
A: 15.2 µM (inactive)

Q: And the GI50 (SF-268)?
A: 20.3 µM (inactive)

Q: And the GI50 (SF-539)?
A: 15.9 µM (inactive)

Q: And the GI50 (SK-MEL-28)?
A: 18.1 µM (inactive)

Q: What about the GI50 (SK-MEL-5) of the same compound?
A: 6.32 µM (inactive)

Q: What about the GI50 (TK-10) of the same compound?
A: 30.9 µM (inactive)
